Earlier results in patent US20060182816A1, “Hypobromous acid system” (priority 2005, published 2006).
Read-outs that look alike come from different tables or passages of the source.

Assays:
[1] = not given; remark: listed apart in the source

## OCl [HOCl, hypochlorous acid]
other
  pKa: about 7.53

## OBr [Hypobromite ion]
[1]; pH 6.0
  % bromine as OBr−: 0.0%
[1]; pH 6.5
  % bromine as OBr−: 0.6%
[1]; pH 7.0
  % bromine as OBr−: 2%
[1]; pH 7.5
  % bromine as OBr−: 6%
[1]; pH 8.0
  % bromine as OBr−: 17%
[1]; pH 8.5
  % bromine as OBr−: 43%

## OBr [Hypobromous acid]
[1]; pH 6.0
  % bromine as HOBr: 100%
[1]; pH 6.5
  % bromine as HOBr: 99.4%
[1]; pH 7.0
  % bromine as HOBr: 98%
[1]; pH 7.5
  % bromine as HOBr: 94%
[1]; pH 8.0
  % bromine as HOBr: 83%
[1]; pH 8.5
  % bromine as HOBr: 57%
